How the values were obtained:
[1] = target: T1, Alpha-2A adrenergic receptor (Homo sapiens, UniProt P08913); format: cell membranes, Sf9, Membrane; conditions: sf9; note: in other assays of this panel Not Active means under 50% inhibition at 10 µM
T1 sequence (P08913 whole entry): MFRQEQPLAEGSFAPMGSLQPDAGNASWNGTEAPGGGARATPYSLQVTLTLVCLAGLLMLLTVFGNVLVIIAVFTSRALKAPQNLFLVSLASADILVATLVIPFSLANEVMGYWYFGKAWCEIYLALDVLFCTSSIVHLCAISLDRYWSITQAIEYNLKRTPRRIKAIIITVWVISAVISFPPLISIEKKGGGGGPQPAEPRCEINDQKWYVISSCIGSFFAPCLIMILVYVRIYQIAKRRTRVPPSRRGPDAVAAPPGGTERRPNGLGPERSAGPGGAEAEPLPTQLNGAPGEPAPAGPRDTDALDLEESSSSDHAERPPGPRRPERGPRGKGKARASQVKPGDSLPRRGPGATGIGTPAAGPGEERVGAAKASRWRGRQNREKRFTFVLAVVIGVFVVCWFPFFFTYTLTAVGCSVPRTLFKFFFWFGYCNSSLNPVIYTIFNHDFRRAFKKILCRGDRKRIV

[2] = target: T2, Alpha-2C adrenergic receptor (Homo sapiens, UniProt P18825); assay: DRUGMATRIX: Adrenergic Alpha-2C radioligand binding (ligand: [3H] MK-912); format: cell membranes, Sf9, Membrane; conditions: sf9
T2 sequence (P18825 whole entry): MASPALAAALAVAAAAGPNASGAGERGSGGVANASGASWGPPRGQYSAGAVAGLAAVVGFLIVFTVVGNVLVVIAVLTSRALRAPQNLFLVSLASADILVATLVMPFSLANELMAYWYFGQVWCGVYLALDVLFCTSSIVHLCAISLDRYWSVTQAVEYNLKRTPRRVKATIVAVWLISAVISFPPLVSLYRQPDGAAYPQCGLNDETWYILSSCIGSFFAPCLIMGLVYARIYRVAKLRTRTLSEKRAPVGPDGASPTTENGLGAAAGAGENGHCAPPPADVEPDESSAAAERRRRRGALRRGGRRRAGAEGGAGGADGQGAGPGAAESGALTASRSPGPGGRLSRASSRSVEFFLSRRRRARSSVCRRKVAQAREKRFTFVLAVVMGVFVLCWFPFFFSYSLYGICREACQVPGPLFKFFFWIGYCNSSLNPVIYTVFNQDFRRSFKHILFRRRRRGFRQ

[3] = target: Beta-1 adrenergic receptor (Homo sapiens, UniProt P08588); assay: DRUGMATRIX: Adrenergic beta1 radioligand binding (ligand: [125I] Cyanopindolol); format: cell membranes, CHO-K1, Membrane; conditions: cho-k1; Not Active = under 50% inhibition at 10 µM
Sequence of Beta-1 adrenergic receptor (P08588 whole entry): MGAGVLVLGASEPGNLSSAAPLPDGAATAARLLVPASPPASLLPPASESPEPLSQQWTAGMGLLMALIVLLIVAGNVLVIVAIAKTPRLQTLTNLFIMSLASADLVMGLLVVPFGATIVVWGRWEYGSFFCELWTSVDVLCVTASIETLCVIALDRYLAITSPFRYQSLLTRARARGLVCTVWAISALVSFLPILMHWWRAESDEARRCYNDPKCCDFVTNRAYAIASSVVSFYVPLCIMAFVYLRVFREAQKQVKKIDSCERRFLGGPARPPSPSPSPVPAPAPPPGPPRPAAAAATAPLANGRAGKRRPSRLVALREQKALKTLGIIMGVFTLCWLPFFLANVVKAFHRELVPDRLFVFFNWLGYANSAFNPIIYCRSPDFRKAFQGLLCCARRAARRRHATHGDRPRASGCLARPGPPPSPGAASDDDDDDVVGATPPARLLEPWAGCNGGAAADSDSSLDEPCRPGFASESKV

[4] = target: T3, Type-2 angiotensin II receptor (Homo sapiens, UniProt P50052); format: cell-based; conditions: cho-k1; note: in other assays of this panel Not Active means under 50% inhibition at 10 µM
T3 sequence (P50052 whole entry): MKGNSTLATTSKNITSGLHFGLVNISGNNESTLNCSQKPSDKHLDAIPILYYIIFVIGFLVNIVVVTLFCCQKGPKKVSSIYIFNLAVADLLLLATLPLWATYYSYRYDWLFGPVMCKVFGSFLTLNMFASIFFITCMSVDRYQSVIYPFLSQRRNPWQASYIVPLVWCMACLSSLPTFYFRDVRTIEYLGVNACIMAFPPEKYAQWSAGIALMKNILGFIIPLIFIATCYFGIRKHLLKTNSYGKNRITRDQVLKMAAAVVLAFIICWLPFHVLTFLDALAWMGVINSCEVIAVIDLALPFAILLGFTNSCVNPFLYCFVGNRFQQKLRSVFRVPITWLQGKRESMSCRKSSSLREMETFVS

[5] = DRUGMATRIX: Calcium Channel Type L, Phenylalkylamine radioligand binding (ligand: [3H] (-)-Desmethoxyverapamil (D-888)); format: cell membranes, Rattus norvegicus, Wistar, Brain, Membrane; conditions: Not Active = under 50% inhibition at 10 µM
[6] = DRUGMATRIX: GABAA, Flunitrazepam, Central radioligand binding (ligand: [3H] Flunitrazepam); format: cell membranes, Rattus norvegicus, Wistar, Brain, Membrane; conditions: Not Active = under 50% inhibition at 10 µM
[7] = target: Insulin receptor (Rattus norvegicus, UniProt P15127); format: cell membranes, Wistar, Liver, Membrane; note: in other assays of this panel Not Active means under 50% inhibition at 10 µM
Sequence of Insulin receptor (P15127 27-759 limits assumed): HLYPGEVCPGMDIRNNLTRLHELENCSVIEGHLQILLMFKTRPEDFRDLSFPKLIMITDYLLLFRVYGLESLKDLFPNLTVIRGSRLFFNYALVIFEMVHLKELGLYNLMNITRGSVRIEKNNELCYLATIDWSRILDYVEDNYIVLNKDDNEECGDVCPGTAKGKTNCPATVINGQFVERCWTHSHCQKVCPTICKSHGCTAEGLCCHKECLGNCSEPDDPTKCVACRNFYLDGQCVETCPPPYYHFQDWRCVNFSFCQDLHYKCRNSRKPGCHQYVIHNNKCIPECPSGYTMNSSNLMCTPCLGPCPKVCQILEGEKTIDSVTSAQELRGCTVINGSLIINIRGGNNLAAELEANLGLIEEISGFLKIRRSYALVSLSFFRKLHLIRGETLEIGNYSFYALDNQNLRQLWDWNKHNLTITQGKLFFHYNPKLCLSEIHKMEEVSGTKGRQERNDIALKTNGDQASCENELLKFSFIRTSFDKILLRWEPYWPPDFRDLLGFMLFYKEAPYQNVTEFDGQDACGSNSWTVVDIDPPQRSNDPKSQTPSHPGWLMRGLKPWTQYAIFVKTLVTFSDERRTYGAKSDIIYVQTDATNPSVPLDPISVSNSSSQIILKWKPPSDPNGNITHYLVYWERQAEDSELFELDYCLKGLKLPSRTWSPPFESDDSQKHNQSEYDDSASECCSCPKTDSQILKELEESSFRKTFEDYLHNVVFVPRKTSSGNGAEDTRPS
Sequence of Insulin receptor (P15127 764-1383 limits assumed): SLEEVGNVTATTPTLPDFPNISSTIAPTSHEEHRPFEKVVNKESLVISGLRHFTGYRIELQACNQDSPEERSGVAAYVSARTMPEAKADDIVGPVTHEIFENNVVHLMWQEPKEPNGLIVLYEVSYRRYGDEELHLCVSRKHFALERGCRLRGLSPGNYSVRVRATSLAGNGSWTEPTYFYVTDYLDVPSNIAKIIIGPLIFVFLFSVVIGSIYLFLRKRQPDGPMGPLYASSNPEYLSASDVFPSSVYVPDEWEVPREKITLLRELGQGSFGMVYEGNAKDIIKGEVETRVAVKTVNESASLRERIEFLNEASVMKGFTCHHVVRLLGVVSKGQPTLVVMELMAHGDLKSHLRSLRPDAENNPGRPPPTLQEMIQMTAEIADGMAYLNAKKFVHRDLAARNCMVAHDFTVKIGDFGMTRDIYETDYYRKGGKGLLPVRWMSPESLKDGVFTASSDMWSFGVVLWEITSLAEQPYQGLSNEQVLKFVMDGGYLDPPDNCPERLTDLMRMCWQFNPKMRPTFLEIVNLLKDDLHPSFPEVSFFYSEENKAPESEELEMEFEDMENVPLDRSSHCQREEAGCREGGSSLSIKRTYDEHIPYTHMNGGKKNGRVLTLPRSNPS

[8] = target: T4, Neuropeptide Y receptor type 2 (Homo sapiens, UniProt P49146); format: cell membranes, Membrane; conditions: kan-ts; note: in other assays of this panel Not Active means under 50% inhibition at 10 µM
T4 sequence (P49146 whole entry): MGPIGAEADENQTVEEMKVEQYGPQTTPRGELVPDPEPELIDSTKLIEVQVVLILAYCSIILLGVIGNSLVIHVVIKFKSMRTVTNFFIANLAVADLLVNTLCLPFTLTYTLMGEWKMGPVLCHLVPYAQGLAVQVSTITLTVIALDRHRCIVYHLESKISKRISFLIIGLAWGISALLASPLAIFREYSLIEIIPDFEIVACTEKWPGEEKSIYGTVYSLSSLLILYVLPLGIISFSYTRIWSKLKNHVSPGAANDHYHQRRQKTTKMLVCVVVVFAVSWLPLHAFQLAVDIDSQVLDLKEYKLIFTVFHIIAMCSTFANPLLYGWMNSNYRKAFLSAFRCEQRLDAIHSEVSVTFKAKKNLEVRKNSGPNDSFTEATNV

[9] = target: Receptor tyrosine-protein kinase erbB-2 (Homo sapiens, UniProt P04626); assay: biochemical; format: cell-based, Insect cells; conditions: insect cells
[10] = target: 5-hydroxytryptamine receptor 1B (Rattus norvegicus, UniProt P28564); format: cell membranes, Wistar, Cerebral cortex, Membrane; note: in other assays of this panel Not Active means under 50% inhibition at 10 µM
Sequence of 5-hydroxytryptamine receptor 1B (P28564 whole entry): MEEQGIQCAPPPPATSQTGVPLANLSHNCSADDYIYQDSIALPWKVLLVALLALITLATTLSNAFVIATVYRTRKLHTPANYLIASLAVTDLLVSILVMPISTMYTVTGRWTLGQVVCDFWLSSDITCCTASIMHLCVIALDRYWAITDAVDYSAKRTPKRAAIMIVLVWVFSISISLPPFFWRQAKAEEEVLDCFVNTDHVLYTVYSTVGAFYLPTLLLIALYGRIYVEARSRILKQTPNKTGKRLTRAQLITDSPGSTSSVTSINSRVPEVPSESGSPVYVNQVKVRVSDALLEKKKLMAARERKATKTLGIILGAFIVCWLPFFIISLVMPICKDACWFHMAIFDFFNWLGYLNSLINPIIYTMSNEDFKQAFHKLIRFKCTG

[11] = target: T5, Adenosine receptor A1 (Homo sapiens, UniProt P30542); format: cell membranes, CHO, Membrane; conditions: cho
T5 sequence (P30542 whole entry): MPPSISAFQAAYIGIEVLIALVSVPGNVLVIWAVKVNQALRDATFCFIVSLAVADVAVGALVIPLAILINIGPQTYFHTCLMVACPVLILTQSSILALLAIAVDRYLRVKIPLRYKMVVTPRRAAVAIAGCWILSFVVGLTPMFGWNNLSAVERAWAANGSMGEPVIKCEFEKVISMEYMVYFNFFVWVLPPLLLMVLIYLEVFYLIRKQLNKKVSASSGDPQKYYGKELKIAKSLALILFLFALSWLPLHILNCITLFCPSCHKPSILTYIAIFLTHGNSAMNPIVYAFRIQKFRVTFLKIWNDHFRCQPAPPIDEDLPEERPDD

[12] = target: Voltage-gated inwardly rectifying potassium channel KCNH2 (Homo sapiens, UniProt Q12809); conditions: hek293; note: in other assays of this panel Not Active means under 50% inhibition at 10 µM
Sequence of Voltage-gated inwardly rectifying potassium channel KCNH2 (Q12809 whole entry): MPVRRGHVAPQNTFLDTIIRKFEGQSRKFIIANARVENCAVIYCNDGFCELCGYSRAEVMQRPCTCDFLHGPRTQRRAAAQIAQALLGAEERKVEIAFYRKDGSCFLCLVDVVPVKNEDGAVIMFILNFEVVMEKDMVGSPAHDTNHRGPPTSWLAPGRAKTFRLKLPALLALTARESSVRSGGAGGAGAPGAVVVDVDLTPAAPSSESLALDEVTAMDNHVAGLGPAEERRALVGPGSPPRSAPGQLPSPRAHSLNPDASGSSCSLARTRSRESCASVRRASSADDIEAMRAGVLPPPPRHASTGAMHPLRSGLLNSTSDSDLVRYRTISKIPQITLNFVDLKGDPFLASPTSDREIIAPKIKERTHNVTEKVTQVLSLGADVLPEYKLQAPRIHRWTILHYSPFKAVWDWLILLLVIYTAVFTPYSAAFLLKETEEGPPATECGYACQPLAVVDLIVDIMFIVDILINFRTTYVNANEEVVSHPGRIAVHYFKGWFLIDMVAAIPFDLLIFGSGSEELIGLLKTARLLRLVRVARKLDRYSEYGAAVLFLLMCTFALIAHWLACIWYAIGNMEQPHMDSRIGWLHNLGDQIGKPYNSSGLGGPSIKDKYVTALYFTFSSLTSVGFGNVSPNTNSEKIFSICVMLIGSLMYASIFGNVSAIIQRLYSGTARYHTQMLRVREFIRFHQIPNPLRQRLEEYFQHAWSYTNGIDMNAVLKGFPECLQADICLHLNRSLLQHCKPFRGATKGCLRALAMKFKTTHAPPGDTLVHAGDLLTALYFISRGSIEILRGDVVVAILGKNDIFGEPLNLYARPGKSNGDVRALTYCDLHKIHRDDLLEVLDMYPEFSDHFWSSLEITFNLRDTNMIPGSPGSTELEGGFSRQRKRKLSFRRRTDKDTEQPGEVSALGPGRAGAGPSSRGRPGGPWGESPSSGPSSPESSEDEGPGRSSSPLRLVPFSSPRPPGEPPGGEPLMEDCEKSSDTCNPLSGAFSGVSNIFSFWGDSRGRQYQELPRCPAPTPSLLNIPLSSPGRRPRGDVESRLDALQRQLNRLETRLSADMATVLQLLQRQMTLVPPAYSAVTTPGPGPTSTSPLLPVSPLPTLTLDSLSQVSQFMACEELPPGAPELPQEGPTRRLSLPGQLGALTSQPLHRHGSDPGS

CCC1(c2ccccc2)C(=O)NCNC1=O [PRIMIDONE]
Not Active: IC50 [1] | IC50 [2] | IC50 [3] | IC50 [4] | IC50 [5] | Ki [5] | IC50 [6] | Ki [6] | IC50 [7] | IC50 [8] | IC50 [9] | IC50 [10] | IC50 [11] | IC50 [12] | Ki [12]

CCCc1cc(=O)[nH]c(=S)[nH]1 [PROPYLTHIOURACIL]
Not Active: IC50 [1] | IC50 [2] | IC50 [3] | IC50 [4] | IC50 [5] | Ki [5] | IC50 [6] | Ki [6] | IC50 [7] | IC50 [8] | IC50 [9] | IC50 [10] | IC50 [11] | IC50 [12] | Ki [12]

CARBOPLATIN
Not Active: IC50 [1] | Ki [1] | IC50 [2] | Ki [2] | IC50 [3] | Ki [3] | IC50 [4] | Ki [4] | IC50 [5] | Ki [5] | IC50 [6] | Ki [6] | IC50 [7] | Ki [7] | IC50 [8] | Ki [8] | IC50 [9] | Ki [9] | IC50 [10] | Ki [10] | IC50 [11] | Ki [11] | IC50 [12] | Ki [12]

CISPLATIN
Not Active: IC50 [1] | Ki [1] | IC50 [2] | Ki [2] | IC50 [3] | Ki [3] | IC50 [4] | Ki [4] | IC50 [5] | Ki [5] | IC50 [6] | Ki [6] | IC50 [7] | Ki [7] | IC50 [8] | Ki [8] | IC50 [9] | Ki [9] | IC50 [10] | Ki [10] | IC50 [11] | Ki [11] | IC50 [12] | Ki [12]

GOLD SODIUM THIOMALATE
Not Active: IC50 [1] | Ki [1] | IC50 [2] | Ki [2] | IC50 [3] | Ki [3] | IC50 [4] | Ki [4] | IC50 [5] | Ki [5] | IC50 [6] | Ki [6] | IC50 [7] | Ki [7] | IC50 [8] | Ki [8] | IC50 [9] | Ki [9] | IC50 [10] | Ki [10] | IC50 [11] | Ki [11] | IC50 [12] | Ki [12]

OXALIPLATIN
Not Active: IC50 [1] | Ki [1] | IC50 [2] | Ki [2] | IC50 [3] | Ki [3] | IC50 [4] | Ki [4] | IC50 [5] | Ki [5] | IC50 [6] | Ki [6] | IC50 [7] | Ki [7] | IC50 [8] | Ki [8] | IC50 [9] | Ki [9] | IC50 [10] | Ki [10] | IC50 [11] | Ki [11] | IC50 [12] | Ki [12]

Source: ChEMBL document CHEMBL1909046, “DrugMatrix in vitro pharmacology data”
